Values of other authors in patent US8394309B2, “Resin film and method for producing it, polarizer and liquid crystal display device” (FUJIFILM Corporation, priority 2010, dated 2013).

Conditions: Table 1

SMILES	Organic acid: Acid dissociation constant
O=C(O)CC(O)(CC(=O)O)C(=O)O [Citric acid, reference compound]	4.0
CCCCCCCC/C=C/CCCCCCCC(=O)OCC(O)COC(=O)CC(O)(CC(=O)O)C(=O)O (centres unmarked) [Citric and oleic acid esters of glycerol, citric and oleic acid esters of glycerol]	3.2
O=C(O)CN(CC(=O)O)Cc1ccccc1 [N-benzylimino-diacetic acid, N-benzyliminodiacetic acid]	3.2
CCCCCCCC/C=C\CCCCCCCC(=O)O [Oleic acid]	4.9
CCCCOB(OCCCC)OCCCC [Tributyl borate, reference compound]	6.0

Continued, values first:

Organic acid: Acid dissociation constant	SMILES
4.8	CCCCCCCCCCC(=O)O [Undecanoic acid]
4.8	CCCCC(=O)O [Valeric acid, reference compound]
4.5	CCCCCCCCCCCCN(CC(=O)O)CC(=O)O [lauramino-diacetic acid, lauraminodiacetic acid]
